Laboratory results as given in publication PMC5218480 (PLoS ONE, 2017).

Tested on: MV-4-11 cells
Test: Gene expression microarray analysis (Affymetrix PrimeView) and GSEA
Type: cell-based, human
Design: RFU PODN (11730768_x_at) / Fold change /veh PODN (11730768_x_at) / RFU LINC00158 (11744669_a_at) / Fold change /veh LINC00158 (11744669_a_at) / RFU DUSP10 (11751237_a_at) / Fold change /veh DUSP10 (11751237_a_at) / RFU ID3 (11757404_x_at) / Fold change /veh ID3 (11757404_x_at) / RFU PLEKHG5 (11737974_s_at) / Fold change /veh PLEKHG5 (11737974_s_at) / RFU LRRC4B (11730491_at) / Fold change /veh LRRC4B (11730491_at) / RFU GIMAP4 (11747438_a_at) / Fold change /veh GIMAP4 (11747438_a_at) / RFU KRT8 (11758183_x_at) / Fold change /veh KRT8 (11758183_x_at) / RFU CNN1 (11734310_a_at) / Fold change /veh CNN1 (11734310_a_at) / RFU VPS37D (11726825_at) / Fold change /veh VPS37D (11726825_at) / RFU C10orf10 (11716522_x_at) / Fold change /veh C10orf10 (11716522_x_at) / RFU KIR2DL2 /// KIR2DL4 /// KIR2DL5A /// KIR2DL5B /// KIR2DS1 /// KIR2DS2 /// KIR2DS3 /// KIR2DS4 /// KIR3DL3 /// KIR3DL3 /// KIR3DS1 (11738374_at) / Fold change /veh KIR2DL2 /// KIR2DL4 /// KIR2DL5A /// KIR2DL5B /// KIR2DS1 /// KIR2DS2 /// KIR2DS3 /// KIR2DS4 /// KIR3DL3 /// KIR3DL3 /// KIR3DS1 (11738374_at) / RFU C1QL1 (11718748_at) / Fold change /veh C1QL1 (11718748_at) / RFU TMPRSS4 (11747572_a_at) / Fold change /veh TMPRSS4 (11747572_a_at) / RFU HAMP (11756126_x_at) / Fold change /veh HAMP (11756126_x_at) / RFU RNFT2 (11725882_a_at) / Fold change /veh RNFT2 (11725882_a_at) / RFU NR4A2 (11747474_a_at) / Fold change /veh NR4A2 (11747474_a_at) / RFU ABCC12 (11746883_a_at) / Fold change /veh ABCC12 (11746883_a_at) / RFU TMEM136 (11760407_x_at) / Fold change /veh TMEM136 (11760407_x_at) / RFU CLDN22 /// WWC2 (11732394_at) / Fold change /veh CLDN22 /// WWC2 (11732394_at) / RFU HLA-DPB1 (11760878_x_at) / Fold change /veh HLA-DPB1 (11760878_x_at) / RFU SPINT1 (11716480_a_at) / Fold change /veh SPINT1 (11716480_a_at) / RFU GAP43 (11754022_s_at) / Fold change /veh GAP43 (11754022_s_at) / RFU A4GNT (11735810_at) / Fold change /veh A4GNT (11735810_at) / RFU PRB3 (11715151_x_at) / Fold change /veh PRB3 (11715151_x_at) / RFU TUBB4B (11761932_at) / Fold change /veh TUBB4B (11761932_at) / RFU CAPN14 (11732068_a_at) / Fold change /veh CAPN14 (11732068_a_at) / RFU TMCC2 (11721928_a_at) / Fold change /veh TMCC2 (11721928_a_at) / RFU IRGQ (11745062_a_at) / Fold change /veh IRGQ (11745062_a_at) / RFU FAM174B (11720279_a_at) / Fold change /veh FAM174B (11720279_a_at) / RFU TMPRSS4 (11748680_a_at) / Fold change /veh TMPRSS4 (11748680_a_at) / RFU FAM212B (11763350_a_at) / Fold change /veh FAM212B (11763350_a_at) / RFU PLEKHG5 (11743358_a_at) / Fold change /veh PLEKHG5 (11743358_a_at) / RFU ZSCAN30 (11745921_a_at) / Fold change /veh ZSCAN30 (11745921_a_at) / RFU CMKLR1 (11741424_a_at) / Fold change /veh CMKLR1 (11741424_a_at) / RFU LOC101060620 /// MAPK8IP1 (11723275_at) / Fold change /veh LOC101060620 /// MAPK8IP1 (11723275_at) / RFU SPTSSB (11747773_x_at) / Fold change /veh SPTSSB (11747773_x_at) / RFU PRSS12 (11739890_at) / Fold change /veh PRSS12 (11739890_at) / RFU BIN1 (11741810_x_at) / Fold change /veh BIN1 (11741810_x_at) / RFU WNT11 (11732464_a_at) / Fold change /veh WNT11 (11732464_a_at) / RFU C10orf10 (11716521_a_at) / Fold change /veh C10orf10 (11716521_a_at) / RFU C5orf56 (11738089_at) / Fold change /veh C5orf56 (11738089_at) / RFU CYB561 (11721691_x_at) / Fold change /veh CYB561 (11721691_x_at) / RFU ANKRD19P (11752326_a_at) / Fold change /veh ANKRD19P (11752326_a_at) / RFU OR2T12 /// OR2T33 /// OR2T8 (11738714_s_at) / Fold change /veh OR2T12 /// OR2T33 /// OR2T8 (11738714_s_at) / RFU VCAN (11748164_a_at) / Fold change /veh VCAN (11748164_a_at) / RFU JSRP1 (11732532_at) / Fold change /veh JSRP1 (11732532_at) / RFU KRTAP10-11 (11738290_x_at) / Fold change /veh KRTAP10-11 (11738290_x_at) / RFU MYO3A (11730013_a_at) / Fold change /veh MYO3A (11730013_a_at) / RFU EBF3 (11725865_a_at) / Fold change /veh EBF3 (11725865_a_at) / RFU CAMK2N1 (11719241_x_at) / Fold change /veh CAMK2N1 (11719241_x_at) / RFU C5orf56 (11738088_a_at) / Fold change /veh C5orf56 (11738088_a_at) / RFU OLFML3 (11715873_a_at) / Fold change /veh OLFML3 (11715873_a_at) / RFU LOC100653217 /// NTM (11731650_a_at) / Fold change /veh LOC100653217 /// NTM (11731650_a_at) / RFU MAPK11 (11762145_a_at) / Fold change /veh MAPK11 (11762145_a_at) / RFU FIZ1 (11724087_x_at) / Fold change /veh FIZ1 (11724087_x_at) / RFU OASL (11726364_x_at) / Fold change /veh OASL (11726364_x_at) / RFU SOX15 (11748057_x_at) / Fold change /veh SOX15 (11748057_x_at) / RFU CD79A (11719716_a_at) / Fold change /veh CD79A (11719716_a_at) / RFU HIST1H1D (11736915_at) / Fold change /veh HIST1H1D (11736915_at) / RFU CASKIN2 (11723855_a_at) / Fold change /veh CASKIN2 (11723855_a_at) / RFU LOC730098 (11760151_x_at) / Fold change /veh LOC730098 (11760151_x_at) / RFU OR4N2 (11742367_at) / Fold change /veh OR4N2 (11742367_at) / RFU PRRT2 (11749266_a_at) / Fold change /veh PRRT2 (11749266_a_at) / RFU SNX32 (11753110_a_at) / Fold change /veh SNX32 (11753110_a_at) / RFU CDHR5 (11726645_a_at) / Fold change /veh CDHR5 (11726645_a_at) / RFU RCAN1 (11760418_a_at) / Fold change /veh RCAN1 (11760418_a_at) / RFU FAM167A (11723789_a_at) / Fold change /veh FAM167A (11723789_a_at) / RFU FAM26E (11764081_at) / Fold change /veh FAM26E (11764081_at) / RFU ISYNA1 (11749810_s_at) / Fold change /veh ISYNA1 (11749810_s_at) / RFU ACY1 (11761880_at) / Fold change /veh ACY1 (11761880_at) / RFU 11764098_at / Fold change /veh 11764098_at / RFU SAMD14 (11745864_x_at) / Fold change /veh SAMD14 (11745864_x_at) / RFU NPB (11741838_a_at) / Fold change /veh NPB (11741838_a_at) / RFU TMPRSS6 (11731388_a_at) / Fold change /veh TMPRSS6 (11731388_a_at) / RFU KRTAP10-2 (11738614_at) / Fold change /veh KRTAP10-2 (11738614_at) / RFU ARHGAP8 /// PRR5-ARHGAP8 (11727945_x_at) / Fold change /veh ARHGAP8 /// PRR5-ARHGAP8 (11727945_x_at) / RFU KRTAP5-7 /// NADSYN1 (11734609_at) / Fold change /veh KRTAP5-7 /// NADSYN1 (11734609_at) / RFU RASL12 (11751679_a_at) / Fold change /veh RASL12 (11751679_a_at) / RFU CDKN2B (11736163_a_at) / Fold change /veh CDKN2B (11736163_a_at) / RFU PRF1 (11729649_at) / Fold change /veh PRF1 (11729649_at) / RFU, ZNF638 /// ZNF638-IT1 / Fold change vs veh, ZNF638 /// ZNF638-IT1 / RFU, PANK3 / Fold change vs veh, PANK3 / RFU, SH3YL1 / Fold change vs veh, SH3YL1 / RFU, ZEB2 / Fold change vs veh, ZEB2 / RFU, NRIP1 / Fold change vs veh, NRIP1 / RFU, PTTG1IP / Fold change vs veh, PTTG1IP / RFU, CAPN2 / Fold change vs veh, CAPN2 / RFU, MED14 / Fold change vs veh, MED14 / RFU, SNORA58 / Fold change vs veh, SNORA58 / RFU, C1orf63 / Fold change vs veh, C1orf63 / RFU, LRRFIP1 / Fold change vs veh, LRRFIP1 / RFU, NDUFAF7 / Fold change vs veh, NDUFAF7 / RFU, SLC12A2 / Fold change vs veh, SLC12A2 / RFU, IBTK / Fold change vs veh, IBTK / RFU, ESF1 / Fold change vs veh, ESF1 / Fold change vs veh, TMEM50B / RFU, TAOK1 / Fold change vs veh, TAOK1 / RFU, ACBD3 / Fold change vs veh, ACBD3 / RFU, TMA16 / Fold change vs veh, TMA16 / RFU, RWDD3 / Fold change vs veh, RWDD3 / RFU, BCAT1 / Fold change vs veh, BCAT1 / RFU, EDEM3 / Fold change vs veh, EDEM3 / RFU, TMEM33 / Fold change vs veh, TMEM33 / RFU, WDR75 / Fold change vs veh, WDR75 / RFU, AHCTF1 / Fold change vs veh, AHCTF1 / RFU, TFRC / Fold change vs veh, TFRC / RFU, ZDHHC17 / Fold change vs veh, ZDHHC17 / RFU, NOM1 / Fold change vs veh, NOM1 / RFU, ARL8B / Fold change vs veh, ARL8B / RFU, ZBTB11 / Fold change vs veh, ZBTB11 / RFU, TAMM41 / Fold change vs veh, TAMM41 / RFU, KIAA1704 /// LOC100996395 / Fold change vs veh, KIAA1704 /// LOC100996395 / RFU, ING1 / Fold change vs veh, ING1 / RFU, TRMT61B / Fold change vs veh, TRMT61B / RFU, FUBP3 / Fold change vs veh, FUBP3 / RFU, TP53 / Fold change vs veh, TP53 / RFU, TNKS2 / Fold change vs veh, TNKS2 / RFU, ZFP14 / Fold change vs veh, ZFP14 / RFU, ACTR2 / Fold change vs veh, ACTR2 / RFU, PPP3R1 / Fold change vs veh, PPP3R1 / RFU, PIK3R1 / Fold change vs veh, PIK3R1 / RFU, HNRNPA1 / Fold change vs veh, HNRNPA1 / RFU, RNF170 / Fold change vs veh, RNF170 / RFU, ZNF28 / Fold change vs veh, ZNF28 / RFU, RNGTT / Fold change vs veh, RNGTT / RFU, OGT / Fold change vs veh, OGT / RFU, BRD1 / Fold change vs veh, BRD1 / RFU, MARS / Fold change vs veh, MARS / RFU, ZNF655 / Fold change vs veh, ZNF655 / RFU, FAHD1 / Fold change vs veh, FAHD1 / RFU, BDP1 / Fold change vs veh, BDP1 / RFU, LRRCC1 / Fold change vs veh, LRRCC1 / RFU, ARID1A / Fold change vs veh, ARID1A / RFU, ZNF146 / Fold change vs veh, ZNF146 / RFU, ZNF330 / Fold change vs veh, ZNF330 / RFU, GPN3 / Fold change vs veh, GPN3 / RFU, C9orf123 / Fold change vs veh, C9orf123 / RFU, N4BP2L2 / Fold change vs veh, N4BP2L2 / RFU, ARFIP1 / Fold change vs veh, ARFIP1 / RFU, FAM179B / Fold change vs veh, FAM179B / RFU, BCL10 / Fold change vs veh, BCL10 / RFU, UHRF1BP1L / Fold change vs veh, UHRF1BP1L / RFU, BET1 / Fold change vs veh, BET1 / RFU, CNOT2 / Fold change vs veh, CNOT2 / RFU, ZNF268 / Fold change vs veh, ZNF268 / Fold change vs veh, ZNF507 / RFU, DGCR2 / Fold change vs veh, DGCR2 / RFU, WDSUB1 / Fold change vs veh, WDSUB1 / Fold change vs veh, HSP90B1 /// MIR3652 / RFU, ADSS / Fold change vs veh, ADSS / RFU, GK / Fold change vs veh, GK / RFU, ZNF148 / Fold change vs veh, ZNF148 / RFU, TAF9 / Fold change vs veh, TAF9 / RFU, SLC1A5 / Fold change vs veh, SLC1A5 / RFU, SLMO2 / Fold change vs veh, SLMO2 / RFU, ABCC4 / Fold change vs veh, ABCC4 / RFU, LOC101060439 /// RAP1B / Fold change vs veh, LOC101060439 /// RAP1B / RFU, RFX7 / Fold change vs veh, RFX7 / RFU, GTPBP10 / Fold change vs veh, GTPBP10 / RFU, CNEP1R1 / Fold change vs veh, CNEP1R1 / RFU, BIVM-ERCC5 /// ERCC5 / Fold change vs veh, BIVM-ERCC5 /// ERCC5 / RFU, ILF3 / Fold change vs veh, ILF3 / RFU 11762660_at / Fold change /veh 11762660_at / RFU VCAN (11757783_s_at) / Fold change /veh VCAN (11757783_s_at) / RFU DDX43 (11728927_at) / Fold change /veh DDX43 (11728927_at) / RFU KRT8 (11758188_x_at) / Fold change /veh KRT8 (11758188_x_at) / RFU NKD1 (11759106_at) / Fold change /veh NKD1 (11759106_at) / RFU SRD5A1 (11742802_a_at) / Fold change /veh SRD5A1 (11742802_a_at) / RFU TPSAB1 /// TPSB2 (11721975_s_at) / Fold change /veh TPSAB1 /// TPSB2 (11721975_s_at) / RFU GSTM3 (11746129_a_at) / Fold change /veh GSTM3 (11746129_a_at) / RFU IL23R (11737362_x_at) / Fold change /veh IL23R (11737362_x_at) / RFU TMEM51 (11727254_a_at) / Fold change /veh TMEM51 (11727254_a_at) / RFU PIWIL2 (11732686_x_at) / Fold change /veh PIWIL2 (11732686_x_at) / RFU ORM1 (11744905_x_at) / Fold change /veh ORM1 (11744905_x_at) / RFU CCDC152 (11743942_at) / Fold change /veh CCDC152 (11743942_at) / RFU ECM1 (11717891_a_at) / Fold change /veh ECM1 (11717891_a_at) / RFU IL23R (11748794_a_at) / Fold change /veh IL23R (11748794_a_at) / RFU TNFAIP8L3 (11732012_x_at) / Fold change /veh TNFAIP8L3 (11732012_x_at) / RFU MBOAT4 (11741988_at) / Fold change /veh MBOAT4 (11741988_at) / RFU 11764193_at / Fold change /veh 11764193_at / RFU TMEM53 (11763286_at) / Fold change /veh TMEM53 (11763286_at) / RFU MAGEB2 (11727129_at) / Fold change /veh MAGEB2 (11727129_at) / RFU TMEM200A (11744735_a_at) / Fold change /veh TMEM200A (11744735_a_at) / RFU CCDC152 (11751479_a_at) / Fold change /veh CCDC152 (11751479_a_at) / RFU FAM211A (11726209_a_at) / Fold change /veh FAM211A (11726209_a_at) / RFU RGS16 (11746705_a_at) / Fold change /veh RGS16 (11746705_a_at) / RFU VCAN (11755009_s_at) / Fold change /veh VCAN (11755009_s_at) / RFU RHOB (11743442_s_at) / Fold change /veh RHOB (11743442_s_at) / RFU RGS16 (11720943_a_at) / Fold change /veh RGS16 (11720943_a_at) / RFU RGS16 (11720944_at) / Fold change /veh RGS16 (11720944_at) / RFU, VPS4B / Fold change vs veh, VPS4B / RFU, CREB1 / Fold change vs veh, CREB1 / RFU, DNAJC13 / Fold change vs veh, DNAJC13 / RFU, GNAQ / Fold change vs veh, GNAQ / RFU, CDK5R1 / Fold change vs veh, CDK5R1 / RFU, ZRANB3 / Fold change vs veh, ZRANB3 / RFU, CUL4A / Fold change vs veh, CUL4A / RFU, CCNY / Fold change vs veh, CCNY / RFU, UFL1 / Fold change vs veh, UFL1 / RFU, COG3 / Fold change vs veh, COG3 / RFU, DIAPH2 / Fold change vs veh, DIAPH2 / RFU, SKA2 / Fold change vs veh, SKA2 / RFU, AFF3 / Fold change vs veh, AFF3 / RFU, LMF1 / Fold change vs veh, LMF1 / RFU, IPO11 / Fold change vs veh, IPO11 / RFU, DFFB / Fold change vs veh, DFFB / RFU, FOXP1 / Fold change vs veh, FOXP1 / RFU, CARD8 / Fold change vs veh, CARD8 / RFU, STRN3 / Fold change vs veh, STRN3 / RFU, ADK / Fold change vs veh, ADK / RFU, RASSF2 / Fold change vs veh, RASSF2 / RFU, WIPF1 / Fold change vs veh, WIPF1 / RFU, LARP1B / Fold change vs veh, LARP1B / RFU, RASA1 / Fold change vs veh, RASA1 / RFU, RB1 / Fold change vs veh, RB1 / RFU, PPFIA1 / Fold change vs veh, PPFIA1 / RFU, MAT2A / Fold change vs veh, MAT2A / RFU, CCT5 / Fold change vs veh, CCT5 / RFU, WDR92 / Fold change vs veh, WDR92 / RFU, CUX1 / Fold change vs veh, CUX1 / RFU, TTC7A / Fold change vs veh, TTC7A / RFU, TMEM135 / Fold change vs veh, TMEM135 / RFU, DEPTOR / Fold change vs veh, DEPTOR / RFU, CPM / Fold change vs veh, CPM / RFU, DNAJB6 / Fold change vs veh, DNAJB6 / RFU, CACNA2D3 / Fold change vs veh, CACNA2D3 / RFU, DTX4 / Fold change vs veh, DTX4 / RFU, TFCP2 / Fold change vs veh, TFCP2 / RFU, GMCL1 /// GMCL1P1 / Fold change vs veh, GMCL1 /// GMCL1P1 / RFU, AEBP2 / Fold change vs veh, AEBP2 / RFU, SNHG1 /// SNORD22 /// SNORD25 /// SNORD26 /// SNORD27 /// SNORD28 /// SNORD29 /// SNORD31 / Fold change vs veh, SNHG1 /// SNORD22 /// SNORD25 /// SNORD26 /// SNORD27 /// SNORD28 /// SNORD29 /// SNORD31 / Fold change (Aza/veh), C12orf56 (ProbeSet 11735607_a_at) / Fold change (ACY-1035/veh), C12orf56 (ProbeSet 11735607_a_at) / Fold change (Aza/veh), FGFR1OP (ProbeSet 11751329_s_at) / Fold change (ACY-1035/veh), FGFR1OP (ProbeSet 11751329_s_at) / Fold change (Aza/veh), VPS36 (ProbeSet 11739960_a_at) / Fold change (ACY-1035/veh), VPS36 (ProbeSet 11739960_a_at) / RFU SYPL1 (11715823_x_at) / Fold change /veh SYPL1 (11715823_x_at) / RFU IGFBP7 (11715501_s_at) / Fold change /veh IGFBP7 (11715501_s_at) / RFU REEP3 (11722064_at) / Fold change /veh REEP3 (11722064_at) / RFU IGLL1 (11728026_x_at) / Fold change /veh IGLL1 (11728026_x_at): dose or concentration left out as unconfirmed
Details: MV-4-11 cells, 48 hours

For `Nc1ccc(-c2cccs2)cc1NC(=O)c1ccc2c(c1)cc(C1CC1)n2CCN1CCOCC1` [ACY-1035], the “Fold change /veh CDHR5 (11726645_a_at)” value was 1.11.
